Our source for the IC50, chromatographic logP and melting point values is patent US6878738B1, “Anti-inflammatory oxo derivatives and hydroxy derivatives of pyrrolizines, and their pharmaceutical use” (Merckle GmbH, priority 1999, dated 2005).

Data set [1] concerns the target T1, Cyclooxygenase-1 (Homo sapiens, UniProt P23219).
T1 construct: endogenous in cells; host or cells: human platelets isolated over a Percoll gradient
Description: Inhibition of cyclooxygenase-1: prostaglandin E2 formed from human platelets after calcium ionophore, ELISA. Format: cell-based. The conditions noted are these: PGE2, read-out: IC50 COX-1. The method, then:
Test System for Determination of the Inhibition of Cyclooxygenase-1
In this test system, the amount of prostaglandin E2 formed from human platelets after addition of calcium ionophore is determined by means of ELISA. In this process, the platelets are obtained after centrifugation over a discontinuous Percoll® gradient. The enzyme reaction and the determination of the metabolites formed is carried out in principle as in the determination of 5-lipoxygenase inhibition. Differences exist with respect to the incubation time. Furthermore, the addition of a thromboxane synthase inhibitor is necessary (see Arch. Pharm. Med. Chem. 330, 307-312 (1997)).
For orientation: In an ELISA, binding on a coated surface is turned into a signal by an enzyme label.

The target of data set [2] is T2, 5-lipoxygenase (Homo sapiens, UniProt P09917).
T2 construct: Human granulocytes are used as a source of 5-lipoxygenase; endogenous in cells; host or cells: human granulocytes isolated from heparinised blood
T2 sequence (P09917 1-674): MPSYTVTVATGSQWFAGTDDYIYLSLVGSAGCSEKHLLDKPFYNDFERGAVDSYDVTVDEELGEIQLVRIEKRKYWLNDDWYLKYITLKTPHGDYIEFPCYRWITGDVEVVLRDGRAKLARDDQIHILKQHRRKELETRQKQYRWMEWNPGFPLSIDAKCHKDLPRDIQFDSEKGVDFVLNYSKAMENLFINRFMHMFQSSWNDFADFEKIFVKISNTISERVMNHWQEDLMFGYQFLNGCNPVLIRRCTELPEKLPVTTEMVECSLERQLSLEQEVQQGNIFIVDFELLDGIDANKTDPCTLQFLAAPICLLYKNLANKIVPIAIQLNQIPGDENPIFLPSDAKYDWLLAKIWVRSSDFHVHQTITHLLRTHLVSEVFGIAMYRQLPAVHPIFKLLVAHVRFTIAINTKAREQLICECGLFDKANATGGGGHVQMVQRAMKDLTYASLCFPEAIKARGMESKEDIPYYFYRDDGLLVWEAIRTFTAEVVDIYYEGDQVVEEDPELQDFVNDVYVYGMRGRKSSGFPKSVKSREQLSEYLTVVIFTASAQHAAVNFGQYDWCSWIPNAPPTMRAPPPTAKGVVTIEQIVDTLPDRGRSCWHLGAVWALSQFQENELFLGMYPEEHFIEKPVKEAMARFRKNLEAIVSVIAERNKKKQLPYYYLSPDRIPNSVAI
Description: Inhibition of 5-lipoxygenase: LTB4 formation in human granulocytes stimulated with calcium ionophore A 23187, ELISA. Format: cell-based. As to conditions: read-out: IC50 5-LO. How it is done: Test System for Determination of the Inhibition of 5-Lipoxygenase
Human granulocytes are used as a source of 5-lipoxygenase. By means of stimulation with calcium ionophore A 23187, LTB4 (leukotriene B4) is formed from endogenous arachidonic acid. The granulocytes are isolated and the enzyme reaction is carried out according to known processes (see Arch. Pharm. Med. Chem. 330, 307-312 (1997)).
The blood, protected from clotting with heparin, is centrifuged over a discontinuous Percoll® gradient and the granulocyte layer is removed by pipette. After lysis of the erythrocytes, the granulocytes are washed a number of times and then adjusted to a specific cell count. The enzyme reaction is then started in the presence or absence of the test substance after addition of Ca^2+ using calcium ionophore […]. The synthesis of the leukotrienes is stopped after 1.5 minutes. The samples are centrifuged off and the supernatant is diluted. LTB4 is determined quantitatively by means of ELISA.

A short description of data set [3]: Determination of the partition coefficient n-octanol/water (OECD Guideline No. 117). The format is physicochemical. The method, then: Determination of the Partition Coefficient
The partition coefficient P of the compounds was determined in the system n-octanol/water according to the OECD Guidline for Testing Chemicals, No. 117.

Data set [4] addresses T3, COX2 (from sheep placenta) (Ovis aries, UniProt P79208).
T3 construct: COX2 (from sheep placenta) is preincubated with test substance at 4° C. for 10 min; from tissue; host or cells: sheep placenta
T3 sequence (P79208 17-603): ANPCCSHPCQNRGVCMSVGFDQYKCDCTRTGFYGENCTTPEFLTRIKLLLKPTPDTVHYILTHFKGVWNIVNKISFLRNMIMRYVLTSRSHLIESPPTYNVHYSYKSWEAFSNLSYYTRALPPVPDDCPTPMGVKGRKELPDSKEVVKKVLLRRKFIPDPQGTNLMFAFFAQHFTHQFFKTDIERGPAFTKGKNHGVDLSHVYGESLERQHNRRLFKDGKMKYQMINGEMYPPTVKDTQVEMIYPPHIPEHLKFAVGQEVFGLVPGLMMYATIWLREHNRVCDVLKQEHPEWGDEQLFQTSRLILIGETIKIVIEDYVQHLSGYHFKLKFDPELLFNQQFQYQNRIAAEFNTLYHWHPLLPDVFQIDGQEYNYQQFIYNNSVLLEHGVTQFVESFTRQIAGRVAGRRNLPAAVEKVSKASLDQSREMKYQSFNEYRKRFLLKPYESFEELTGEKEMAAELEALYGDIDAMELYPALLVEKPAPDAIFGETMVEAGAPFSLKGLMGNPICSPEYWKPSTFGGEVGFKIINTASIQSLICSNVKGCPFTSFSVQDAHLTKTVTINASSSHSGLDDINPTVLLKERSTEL
Description: Inhibition of cyclooxygenase-2: COX2 stimulated with arachidonic acid, PGE2 by ELISA. Format: biochemical. The conditions noted are these: arachidonic acid 5 μM, read-out: IC50 COX-2. How it is done:
Test System for Determination of the Inhibition of Cyclooxygenase-2
COX2 (from sheep placenta) is preincubated with test substance at 4° C. for 10 min, then stimulated with arachidonic acid (5 μM) at 25° C. for 10 min. […] The determination is carried out at 3 dilutions (10^−7, 10^−6, 10^−5 M), and the PGE2 concentrations are quantified by means of ELISA (see Mitchell, J. A. et al. Proc. Nat. Acad. Sci 90: 11693-11697 (1993)).

Structures are written as SMILES. Like-named read-outs stand apart in the source and are kept apart here.

T1 sequence (P23219 24-599): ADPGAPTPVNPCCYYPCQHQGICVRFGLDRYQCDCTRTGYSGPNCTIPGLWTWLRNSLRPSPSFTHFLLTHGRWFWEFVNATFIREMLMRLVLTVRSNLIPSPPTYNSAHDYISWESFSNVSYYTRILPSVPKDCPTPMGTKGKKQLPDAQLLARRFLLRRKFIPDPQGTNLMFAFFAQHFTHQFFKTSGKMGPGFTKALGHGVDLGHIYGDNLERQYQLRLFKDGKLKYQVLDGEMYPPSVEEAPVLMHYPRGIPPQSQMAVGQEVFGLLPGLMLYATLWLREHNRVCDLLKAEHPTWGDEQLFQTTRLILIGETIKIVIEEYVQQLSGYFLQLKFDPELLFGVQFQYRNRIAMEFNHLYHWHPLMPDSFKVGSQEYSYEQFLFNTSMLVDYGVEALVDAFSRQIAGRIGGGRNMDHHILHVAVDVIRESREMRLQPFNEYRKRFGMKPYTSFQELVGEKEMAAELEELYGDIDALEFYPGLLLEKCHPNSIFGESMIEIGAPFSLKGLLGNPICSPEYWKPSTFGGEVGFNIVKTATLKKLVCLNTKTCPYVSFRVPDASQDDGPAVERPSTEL

`CC1(C)Cn2cc(-c3ccc(Cl)cc3)c(-c3ccccc3)c2C1=O` [Example 6, 6-(4-Chlorophenyl)-2,3-dihydro-2,2-dimethyl-1-oxo-7-phenyl-1H-pyrrolizine]: the figures for the IC50 in data set [1] and in data set [2] were 0.95 µM and 0.23 µM, respectively. The chromatographic logP turned out to be 5 in data set [3] (pH 2.5, read-out: Log P pH 2.5) and 5.1 in data set [3] (pH 7.5, read-out: Log P pH 7.5).
`CCOC(=O)C(=O)c1c(-c2ccc(Cl)cc2)c(-c2ccccc2)c2n1CC(C)(C)C2O` (centres unmarked) [Example 11, Ethyl 6-(4-Chlorophenyl)-2,3-dihydro-1-hydroxy-2,2-dimethyl-7-phenyl-1H-pyrrolizin-5-yl-2-oxoacetate] yielded a melting point of 193 °C.
For `COC1c2c(-c3ccccc3)c(-c3ccc(Cl)cc3)c(CC(=O)O)n2CC1(C)C` (centres unmarked) [Example 14, 6-(4-Chlorophenyl)-2,3-dihydro-1-methoxy-2,2-dimethyl-7-phenyl-1H-pyrrolizin-5-ylacetic Acid], in data set [1], the half-maximal inhibitory concentration (IC50) turned out to be 0.06 µM. Further, the chromatographic logP in data set [3] (pH 2.5, read-out: Log P pH 2.5) amounted to 4.5; in data set [3] (pH 7.5, read-out: Log P pH 7.5), 1.7.
In turn, `Cc1c(-c2ccc(Cl)cc2)c(-c2ccccc2)c2n1CC(C)(C)C2O` (centres unmarked) [Example 15, 6-(4-Chlorophenyl)-2,3-dihydro-1-hydroxy-2,2,5-trimethyl-7-phenyl-1H-pyrrolizine] came in with a melting point of 133 °C.
For the molecule `COC1c2c(-c3ccccc3)c(-c3ccc(Cl)cc3)c(C)n2CC1(C)C` (centres unmarked) [Example 16, 6-(4-Chlorophenyl)-2,3-dihydro-1-methoxy-2,2,5-trimethyl-7-phenyl-1H-pyrrolizine], the figures for the half-maximal inhibitory concentration (IC50) in data set [1] and in data set [4] were 0.5 µM and 7.5 µM, respectively. The chromatographic logP was 5.1 in data set [3] (pH 2.5, read-out: Log P pH 2.5) and 6.7 in data set [3] (pH 7.5, read-out: Log P pH 7.5).
For `CC1(C)Cn2c(CC(=O)O)c(-c3ccc(Cl)cc3)c(-c3ccccc3)c2C1=O` [Example 18, 6-(4-Chlorophenyl)-2,3-dihydro-2,2-dimethyl-1-oxo-7-phenyl-1H-pyrrolizin-5-ylacetic Acid] the same measures were 0.046 µM, 2.1 µM, 3.3 and 1.1.
For the molecule `CC1(C)Cc2c(-c3ccccc3)c(-c3ccc(Cl)cc3)c(OC(=O)c3ccccc3)n2C1` [Example 26, 2-(4-Chlorophenyl)-6,6-dimethyl-1-phenyl-6,7-dihydro-5H-pyrrolizin-3-yl Benzoate], the melting point amounted to 193 °C.
For the molecule `CC1(C)Cc2c(-c3ccccc3)c(-c3ccc(Cl)cc3)c(CC(=O)O)n2C1` [ML 3000, reference compound], the IC50 was determined as 0.21 µM in data set [1], 4.7 µM in data set [4] and 0.18 µM in data set [2]. For the same molecule, the chromatographic logP was 4.8 in data set [3] (pH 2.5, read-out: Log P pH 2.5) and 1.9 in data set [3] (pH 7.5, read-out: Log P pH 7.5).

One may read the IC50 as the midpoint of a concentration-inhibition curve. Usually melting point stands for the temperature of the solid-liquid transition.
